Test results published in US20240101958A1, “NOVEL HUMAN ERYTHROID PROGENITOR CELL LINE HIGHLY […] B19 INFECTION AND USES THEREOF” (priority 2020, published 2024).

Key:
B19V = B19V infection of hematopoietic cell lines, VP2 mRNA by RT-qPCR normalized to beta-actin; conditions: for decrease of B19V infection by a factor: UT7/Epo-STI cells treated two days before B19V infection (JQ1 0.5 μM, TGF-β 2 ng/mL), 72 h post-inoculation
Procedure: Three distinct UT-7/Epo cell lines were used: 1) UT-7/Epo-S1, a subclone of UT-7/Epo (16), was obtained from Dr Kazuo Sugamura (Tohoku University Graduate School of Medicine, Japan). 2) UT-7/Epo and UT7/Epo-Cl3, a subclone isolated from UT-7/Epo3) UT7/Epo-STI cells were derived from UT-7/GM cell line and were maintained at low passage, with stringency for erythroid features. UT-7 cells were maintained at 37° C., under an atmosphere containing 5% CO2, in alpha minimum essential medium (αMEM) supplemented with 10% fetal calf serum (FCS), 2 mM L-glutamine (Hyclone), 100 U/mL penicillin, 100 μg/mL streptomycin and 2 U/mL recombinant human Erythropoietin (rh-Epo, Euromedex, RC213-15). Where specified, 0.5 μM JQ1 (Sigma-Aldrich, France) or 2 ng/mL TGF-β (Peprotech, France) was added to the culture medium for two days before B19V infection. TF1 (12) and TF1-ER erythroleukemia cells were maintained in Roswell Park Memorial Institute (RPM!) 1640 medium supplemented with 10% FCS, 2 mM L-glutamine (Hyclone), 100 U/mL penicillin, 100 μg/mL streptomycin and 2 U/mL rh-Epo or 5 ng/mL human granulocyte macrophage colony-stimulating factor (GM-CSF, Peprotech).
Plasma samples containing high titers of infectious B19V from asymptomatic blood donors were provided by the Etablissement Français du Sang (EFS). Plasma samples were determined to be negative for both B19V IgG and IgM, with a viral titer of 10^11 B19V DNA genome equivalent (ge)/mL. Briefly, cells were maintained in exponential growth condition by dilution to 0.3×10^6 cells/mL the day before infection. On the day of infection, cells were washed and diluted in FCS-free medium without Epo, at a density of 10·10^6 cells/mL. B19V inoculation was carried out in a 96-well plate, with 10 μL of cell suspension (10^5 cells) and 50 μL of a 100-fold dilution of B19V plasma (10^9 ge/mL), corresponding to a mean of 500 ge/cell. The cells were then incubated at 4° C. for 2 h, and then at 37° C., for 1 h, under an atmosphere containing 5% CO2. We added 140 μL of complete medium and maintained the cells in culture until 72 h. Where specified, we added chloroquine (CQ) to the complete medium, at a final concentration of 25 μM. Cell viability was assessed by trypan blue exclusion test (0.4% in PBS, Thermo Fisher Scientific), by counting blue and total cells under a microscope, with a hemocytometer. After correction for the dilution factor, viability was calculated as follows: % viable cells=[1−(number of blue cells/number of total cell)]×100. At 24, 48 or 72 h post infection (hpi), cells were centrifuged (8 mins at 300×g), supernatants were discarded and cell pellets were frozen at −80° C. until analysis.
Total RNA was extracted from cell pellets with the RNeasy 96 QIAcubeHT kit and a QIAcubeHT machine, according to the manufacturer's instructions. The extraction step included DNase treatment for 15 minutes, to decrease the risk of genomic DNA amplification during PCR. Real-time reverse transcription-quantitative PCR (RT-qPCR) was performed with the Taqman Fast Virus one-step PCR kit (Applied Biosystems). […] For control and normalization with respect to the number of cells, we used a duplex strategy. […] Reactions were performed on 5 μL of extracted RNA with the QuantStudio 3 PCR system and. The reaction began with reverse transcription at 48° C. for 15 mins, followed by inactivation of the reverse transcriptase and activation of the polymerase by heating at 95° C. for 10 mins, followed by 40 cycles of 15s at 95° C. and 30 s at 60° C. […]

B19 = assay: Production of B19 genome copies equivalent per mL of cell culture, qPCR; assay type: cell-based, Human Parvovirus B19; conditions: UT7/Epo-E2 cell line after chloroquine treatment, 96 h post infection
Procedure: Cells (day 8 CD36^+EPC, UT7/Epo-S1, UT7/Epo-STI and UT7/Epo-E2) were inoculated with B19. 24 h after inoculation (24 hpi), cells were washed. 3 days later (96 hpi), supernatant was collected, DNA was isolated and B19 DNA was quantified by qPCR according to a B19 DNA standard (GenBank accession no. AY386330). Results are means±SD of 3 independent experiments. For CD36+ EPC, results are means±SD of three day-8 erythroid culture from CD34+ hematopoietic stem cells isolated from 3 different umbilical cord blood.
B19 genome production (FIG. 12) and transcription (FIG. 13) was evaluated at 96h post infection in CD36+EPC cells (day 8) and UT7 cell lines with or without addition of chloroquine (FIG. 13A and B). 96 h post infection, DNA was extracted from an aliquot of 1 mL of cell culture and RNA from cell pellets. B19 genome production was evaluated by qPCR and genome equivalent (GEq)/mL was calculated according to a B19 genome calibration curve. Transcription was analysed by RT-qPCR as previously described. […] UT7/Epo-E2 cell line presents the highest quantity of B19 genome equivalent produced, with at least 7.65×10^7 GEq/mL after chloroquine treatment. […]

Cc1sc2c(c1C)C(c1ccc(Cl)cc1)=N[C@@H](CC(=O)OC(C)(C)C)c1nnc(C)n1-2 [JQ1]
decrease of B19V infection by a factor (B19V): about 10

CCN(CC)CCCC(C)Nc1ccnc2cc(Cl)ccc12 (racemic) [Chloroquine, (RS)-N-(7-chloroquinolin-4-yl)-N,N-diéthyl-pentane-1,4-diamine]
VP2 expression (B19V; TF1 and TF1-ER cells, under GM-CSF or Epo, with or without chloroquine treatment): undetectable | enhancement of UT7/Epo-S1 sensitivity to B19V (relative B19 mRNA expression) (B19V; UT7/Epo-S1 cells, chloroquine 25 μM, 72 h post-infection): 5 fold | relative B19 mRNA level (VP2), UT7/Epo-S1 without chloroquine set to 1 (B19V; UT7/Epo-STI cells + chloroquine 25 μM, 72 h post-infection): 25.8+4.9 | quantity of B19 genome equivalent produced (B19): at least 7.65×10^7 GEq/mL

TGF-B: hormonal induction of erythroid differentiation (Peprotech)
decrease of B19V infection by a factor (B19V): about 10
